pIC50: −log10 of the molar value. Where “and” joins values, the source holds several entries; their conditions need not be identical. Equal entries are not always repeated.
Key:
[1] = target: T1, mutEGFR (D770_N771insSVD) (Homo sapiens, UniProt P00533, DUP768-770); assay: Exon20-Mutant-EGFR (D770_N771insSVD) kinase assay (TR-FRET); assay type: biochemical
T1 construct: GST-EGFR #3 (SVD between D770 and N771); made in house; host or cells: Sf9 insect cells (baculovirus)

[2] = target: T2, mutEGFR (D770_N771insNPG, T790) (Homo sapiens, UniProt P00533, INS770NPG/T790M); assay: mutEGFR (D770_N771insNPG, T790) kinase assay; assay type: biochemical; details: Table 2a, D770_N771insNPG
T2 construct: exact insNPG construct not described; in-house EGFR proteins were N-terminal GST fusions from baculovirus/insect cells (borders R669-A1210 given only for WT, insSVD, insASV)
Excerpt: The different EGFR proteins used in the biochemical kinase activity inhibition assays were generated inhouse by expression in insect cells using Baculo Virus system and subsequent purification as described in the following paragraphs.
The cDNAs encoding the various protein sequences from human EGFR human (P00533) were optimized for expression in eukaryotic cells and synthesized by the GeneArt Technology at Life Technologies.

[3] = tested on: BA/F3 (insSVD) cells; assay: Ba/F3-EGFR-insSVD cell survival assay (Cell Titer-Glo); assay type: cell-based; details: Mus musculus, BaF3, 48 h
Procedure, shortened: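 CellTiter-Glo luminescence read after 48 h compound exposure at 37° C. Cells: IL-3-independent Ba/F3 lines transduced with EGFR-insSVD or EGFR-insSVD T790M, maintained on 10 ng/ml EGF and seeded at 4000 per well.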

[4] = mutEGFR (D770_N771insSVD) kinase assay IC50, Table 2a, D770_N771insSVD, 2 mM ATP
[5] = mutEGFR (D770_N771insSVD) kinase assay IC50, Table 2b (from US Priority Patent Application), mutEGFR D770_N771insSVD
[6] = Table 3a, cell survival, Cell Titer-Glo, with 10 ng/ml EGF, without IL-3

T2 sequence (P00533 with tags, fused parts or gaps INS770NPG/T790M limits assumed): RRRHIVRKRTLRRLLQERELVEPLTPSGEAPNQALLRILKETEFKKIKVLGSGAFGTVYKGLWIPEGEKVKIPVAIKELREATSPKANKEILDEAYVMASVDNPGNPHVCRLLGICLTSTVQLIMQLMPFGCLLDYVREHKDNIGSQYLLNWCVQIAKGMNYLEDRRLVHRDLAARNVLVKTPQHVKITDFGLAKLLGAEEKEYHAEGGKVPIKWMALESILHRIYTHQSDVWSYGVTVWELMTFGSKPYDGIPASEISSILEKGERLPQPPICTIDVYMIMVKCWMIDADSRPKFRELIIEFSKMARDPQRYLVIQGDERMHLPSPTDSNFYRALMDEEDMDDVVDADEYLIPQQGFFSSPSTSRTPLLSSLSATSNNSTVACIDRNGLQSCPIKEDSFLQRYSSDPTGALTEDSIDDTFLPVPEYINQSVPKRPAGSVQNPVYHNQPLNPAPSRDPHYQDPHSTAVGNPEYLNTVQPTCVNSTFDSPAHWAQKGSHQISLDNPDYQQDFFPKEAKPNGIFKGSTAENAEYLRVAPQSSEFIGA
T1 sequence (P00533 with tags, fused parts or gaps DUP768-770): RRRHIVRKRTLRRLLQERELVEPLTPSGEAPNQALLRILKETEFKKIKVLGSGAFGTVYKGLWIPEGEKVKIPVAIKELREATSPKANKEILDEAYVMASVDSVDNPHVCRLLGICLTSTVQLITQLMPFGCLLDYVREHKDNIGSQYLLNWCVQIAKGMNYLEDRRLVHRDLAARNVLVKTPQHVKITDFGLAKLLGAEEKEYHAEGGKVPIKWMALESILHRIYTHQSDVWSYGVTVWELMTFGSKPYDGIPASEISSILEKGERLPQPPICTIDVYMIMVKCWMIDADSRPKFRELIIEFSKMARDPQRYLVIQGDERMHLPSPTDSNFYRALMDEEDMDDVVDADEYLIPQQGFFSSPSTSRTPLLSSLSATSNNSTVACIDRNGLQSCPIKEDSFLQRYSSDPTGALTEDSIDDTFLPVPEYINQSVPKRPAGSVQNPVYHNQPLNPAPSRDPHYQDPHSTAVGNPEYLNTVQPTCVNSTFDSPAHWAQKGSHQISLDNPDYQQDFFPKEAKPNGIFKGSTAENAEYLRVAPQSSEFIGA

Compound	pIC50 [1, 4]	pIC50 [1, 5]	pIC50 [2]	pIC50 [3, 6]	pIC50 ([3]; Table 3b, Ba/F3 EGFR-insSVD)
C=CC(=O)N1CCn2nc(-c3ccc(F)cc3)c(-c3ccnc(Nc4ccccc4)c3)c2C1 [Example 20, 1-[3-(2-anilinopyridin-4-yl)-2-(4-fluorophenyl)-6,7-dihydropyrazolo[1,5-a]pyrazin-5(4H)-yl]prop-2-en-1-one]	8.45	8.45	8.04	6.21	6.21
CN(C)C/C=C/C(=O)N1CCn2nc(-c3ccc(F)cc3)c(-c3ccnc(Nc4ccccc4)c3)c2C1 [Example 21, (2E)-1-[3-(2-anilinopyridin-4-yl)-2-(4-fluorophenyl)-6,7-dihydropyrazolo[1,5-a]pyrazin-5(4H)-yl]-4-(dimethylamino)but-2-en-1-one]	8.93	8.93	8.35	7.00	7.00
C=CC(=O)N1CCn2nc(-c3ccc(F)cc3)c(-c3ccnc4[nH]ccc34)c2C1 [Example 22, 1-[2-(4-fluorophenyl)-3-(1H-pyrrolo[2,3-b]pyridin-4-yl)-6,7-dihydropyrazolo[1,5-a]pyrazin-5(4H)-yl]prop-2-en-1-one]	8.29	8.29	8.48	7.21	7.21
C/C=C/C(=O)N1CCn2nc(-c3ccc(F)cc3)c(-c3ccncc3)c2C1 [Example 23, (2E)-1-[2-(4-fluorophenyl)-3-(pyridin-4-yl)-6,7-dihydropyrazolo[1,5-a]pyrazin-5(4H)-yl]but-2-en-1-one]	6.68	6.68	6.09	5.41	–
C=C(C)C(=O)N1CCn2nc(-c3ccc(F)cc3)c(-c3ccncc3)c2C1 [Example 24, 1-[2-(4-fluorophenyl)-3-(pyridin-4-yl)-6,7-dihydropyrazolo[1,5-a]pyrazin-5(4H)-yl]-2-methylprop-2-en-1-one]	5.94	5.94	4.84 and < 4.70	5.00	–
CN(C)C/C=C/C(=O)N1CCn2nc(-c3ccc(Cl)c(F)c3)c(-c3ccncc3)c2C1 [Example 25, (2E)-1-[2-(4-chloro-3-fluorophenyl)-3-(pyridin-4-yl)-6,7-dihydropyrazolo[1,5-a]pyrazin-5(4H)-yl]-4-(dimethylamino)but-2-en-1-one]	9.22	–	8.67	7.21	–
CN(C)C/C=C/C(=O)N1CCn2nc(-c3ccc(Cl)cc3F)c(-c3ccncc3)c2C1 [Example 26, (2E)-1-[2-(4-chloro-2-fluorophenyl)-3-(pyridin-4-yl)-6,7-dihydropyrazolo[1,5-a]pyrazin-5(4H)-yl]-4-(dimethylamino)but-2-en-1-one]	8.90	–	8.48	7.15	–
COc1ccc(-c2nn3c(c2-c2ccncc2)CN(C(=O)/C=C/CN(C)C)CC3)cc1Cl [Example 27, (2E)-1-[2-(3-chloro-4-methoxyphenyl)-3-(pyridin-4-yl)-6,7-dihydropyrazolo[1,5-a]pyrazin-5(4H)-yl]-4-(dimethylamino)but-2-en-1-one]	8.42	–	8.52	6.17	–
COc1ccccc1-c1nn2c(c1-c1ccncc1)CN(C(=O)/C=C/CN(C)C)CC2 [Example 28, (2E)-4-(dimethylamino)-1-[2-(2-methoxyphenyl)-3-(pyridin-4-yl)-6,7-dihydropyrazolo[1,5-a]pyrazin-5(4H)-yl]but-2-en-1-one]	7.15	–	7.45	5.40	–
CN(C)C/C=C/C(=O)N1CCn2nc(-c3ccc(Cl)c(Cl)c3)c(-c3ccncc3)c2C1 [Example 29, (2E)-1-[2-(3,4-dichlorophenyl)-3-(pyridin-4-yl)-6,7-dihydropyrazolo[1,5-a]pyrazin-5(4H)-yl]-4-(dimethylamino)but-2-en-1-one]	8.92	–	8.81	6.37	–
COc1ccc(-c2nn3c(c2-c2ccncc2)CN(C(=O)/C=C/CN(C)C)CC3)cc1 [Example 30, (2E)-4-(dimethylamino)-1-[2-(4-methoxyphenyl)-3-(pyridin-4-yl)-6,7-dihydropyrazolo[1,5-a]pyrazin-5(4H)-yl]but-2-en-1-one]	8.14	–	7.63	5.97	–
COc1ccc(-c2nn3c(c2-c2ccncc2)CN(C(=O)/C=C/CN(C)C)CC3)cc1F [Example 31, (2E)-4-(dimethylamino)-1-[2-(3-fluoro-4-methoxyphenyl)-3-(pyridin-4-yl)-6,7-dihydropyrazolo[1,5-a]pyrazin-5(4H)-yl]but-2-en-1-one]	8.39	–	7.73	6.06	–
CCc1cc(-c2nn3c(c2-c2ccncc2)CN(C(=O)/C=C/CN(C)C)CC3)ccc1Cl [Example 32, formic acid-(2E)-1-[2-(4-chloro-3-ethylphenyl)-3-(pyridin-4-yl)-6,7-dihydropyrazolo[1,5-a]pyrazin-5(4H)-yl]-4-(dimethylamino)but-2-en-1-one (1:1)]	8.88	–	8.41	5.97	–
CN(C)C/C=C/C(=O)N1CCn2nc(-c3ccc(C#N)cc3)c(-c3ccncc3)c2C1 [Example 33, 4-{5-[(2E)-4-(dimethylamino)but-2-enoyl]-3-(pyridin-4-yl)-4,5,6,7-tetrahydropyrazolo[1,5-a]pyrazin-2-yl}benzonitrile]	8.08	–	7.17	5.74	–
CN(C)C/C=C/C(=O)N1CCn2nc(-c3ccc(C(F)(F)F)cc3)c(-c3ccncc3)c2C1 [Example 34, (2E)-4-(dimethylamino)-1-[3-(pyridin-4-yl)-2-[4-(trifluoromethyl)phenyl]-6,7-dihydropyrazolo[1,5-a]pyrazin-5(4H)-yl]but-2-en-1-one]	8.86	–	8.36	6.70	–
CN(C)C/C=C/C(=O)N1CCn2nc(-c3ccc(Cl)cc3CO)c(-c3ccncc3)c2C1 [Example 35, (2E)-1-{2-[4-chloro-2-(hydroxymethyl)phenyl]-3-(pyridin-4-yl)-6,7-dihydropyrazolo[1,5-a]pyrazin-5(4H)-yl}-4-(dimethylamino)but-2-en-1-one]	8.87	–	8.53	6.10	–
C=CC(=O)N1CCn2nc(-c3ccc(OC)c(Cl)c3)c(-c3ccncc3)c2C1 [Example 38, 1-[2-(3-chloro-4-methoxyphenyl)-3-(pyridin-4-yl)-6,7-dihydropyrazolo[1,5-a]pyrazin-5(4H)-yl]prop-2-en-1-one]	9.26	–	9.31	7.49	–
C=CC(=O)N1CCn2nc(-c3ccccc3OC)c(-c3ccncc3)c2C1 [Example 39, 1-[2-(2-methoxyphenyl)-3-(pyridin-4-yl)-6,7-dihydropyrazolo[1,5-a]pyrazin-5(4H)-yl]prop-2-en-1-one]	7.42	–	7.74	6.21	–
C=CC(=O)N1CCn2nc(-c3ccc(OC)cc3)c(-c3ccncc3)c2C1 [Example 41, 1-[2-(4-methoxyphenyl)-3-(pyridin-4-yl)-6,7-dihydropyrazolo[1,5-a]pyrazin-5(4H)-yl]prop-2-en-1-one]	8.96	–	8.49	7.43	–
C=CC(=O)N1CCn2nc(-c3ccc(OC)c(F)c3)c(-c3ccncc3)c2C1 [Example 42, 1-[2-(3-fluoro-4-methoxyphenyl)-3-(pyridin-4-yl)-6,7-dihydropyrazolo[1,5-a]pyrazin-5(4H)-yl]prop-2-en-1-one]	9.00	–	8.20	7.27	–
C=CC(=O)N1CCn2nc(-c3ccc(C#N)cc3)c(-c3ccncc3)c2C1 [Example 43, 4-[5-acryloyl-3-(pyridin-4-yl)-4,5,6,7-tetrahydropyrazolo[1,5-a]pyrazin-2-yl]benzonitrile]	8.50	–	7.73	6.88	–
C=CC(=O)N1CCn2nc(-c3ccc(C(F)(F)F)cc3)c(-c3ccncc3)c2C1 [Example 44, 1-[3-(pyridin-4-yl)-2-[4-(trifluoromethyl)phenyl]-6,7-dihydropyrazolo[1,5-a]pyrazin-5(4H)-yl]prop-2-en-1-one]	9.00	–	8.55	7.41	–
C=CC(=O)N1CCn2nc(-c3cccc(C#N)c3)c(-c3ccnc4[nH]cc(C)c34)c2C1 [Example 45]	6.01	–	6.80	6.66	–
C=CC(=O)N1CCn2nc(-c3ccc(OC)c(F)c3)c(-c3ccnc4[nH]cc(C)c34)c2C1 [Example 46, 1-[2-(3-fluoro-4-methoxyphenyl)-3-(3-methyl-1H-pyrrolo[2,3-b]pyridin-4-yl)-6,7-dihydropyrazolo[1,5-a]pyrazin-5(4H)-yl]prop-2-en-1-one]	6.11	–	6.26	6.77	–
C=CC(=O)N1CCn2nc(-c3ccc(OC)cc3)c(-c3ccnc4[nH]cc(C)c34)c2C1 [Example 47, 1-[2-(4-methoxyphenyl)-3-(3-methyl-1H-pyrrolo[2,3-b]pyridin-4-yl)-6,7-dihydropyrazolo[1,5-a]pyrazin-5(4H)-yl]prop-2-en-1-one]	6.06	–	6.18	6.64	–

— patent publication US20260365653A1, “IRREVERSIBLE MUTEGFR INHIBITORS” (Bayer Aktiengesellschaft, priority 2022, published 2026)
